Experimental data published in patent US11504355B2, “Ergothioneine compositions and methods for maintaining and/or increasing vitamin C levels in cells and organisms” (Mironova Innovations, LLC, priority 2018, dated 2022).

Tested on: Human skin fibroblasts
Test: Ascorbic acid colorimetric assay in human skin fibroblasts, with or without alloxan-induced oxidative stress
Format: cell-based
Procedure: This example provides methods and results from studies evaluating the effect of ergothioneine on vitamin C in human fibroblast cells. Human skin fibroblasts were cultured for 18 hours in T-25 flasks. Cells were incubated with 1) control solution, 2) magnesium ascorbyl phosphate, or 3) magnesium ascorbyl phosphate+ergothioneine (1:100). Cells in each group were then treated for 6 hours with a) control solution or b) 500 μM alloxan to induce oxidative stress. All samples were assayed for ascorbic acid with an ascorbic acid colorimetric assay (Biovision catalog no. K671). Results are provided in the table below, where ascorbic acid content (nmol) in human skin fibroblasts per one million cells is reported.

[1] = 0.158% of test solution, no alloxan
[2] = 0.158% of test solution, with 500 uM Alloxan (6 hours, oxidative stress)
[3] = 0.5% of test solution, no alloxan
[4] = 0.5% of test solution, with 500 uM Alloxan (6 hours, oxidative stress)
[5] = 1.58% of test solution, no alloxan
[6] = 1.58% of test solution, with 500 uM Alloxan (6 hours, oxidative stress)
[7] = 5% of test solution, no alloxan
[8] = 5% of test solution, with 500 uM Alloxan (6 hours, oxidative stress)

O=C1O[C@H]([C@@H](O)CO)C([O-])=C1OP(=O)([O-])[O-].O=C1O[C@H]([C@@H](O)CO)C([O-])=C1OP(=O)([O-])[O-].[Mg+2].[Mg+2].[Mg+2] [MAP solution, magnesium ascorbyl phosphate]
ascorbic acid content in human skin fibroblasts per one million cells, Ave [1]: 10.14 nmol | ascorbic acid content in human skin fibroblasts per one million cells, Sample A [1]: 9.94 nmol | ascorbic acid content in human skin fibroblasts per one million cells, Sample B [1]: 10.34 nmol | ascorbic acid content in human skin fibroblasts per one million cells, Ave [2]: 4.93 nmol | ascorbic acid content in human skin fibroblasts per one million cells, Sample A [2]: 4.84 nmol | ascorbic acid content in human skin fibroblasts per one million cells, Sample B [2]: 5.01 nmol | ascorbic acid content in human skin fibroblasts per one million cells, Ave [3]: 21.51 nmol | ascorbic acid content in human skin fibroblasts per one million cells, Sample A [3]: 21.68 nmol | ascorbic acid content in human skin fibroblasts per one million cells, Sample B [3]: 21.33 nmol | ascorbic acid content in human skin fibroblasts per one million cells, Ave [4]: 9.77 nmol | ascorbic acid content in human skin fibroblasts per one million cells, Sample A [4]: 9.54 nmol | ascorbic acid content in human skin fibroblasts per one million cells, Sample B [4]: 9.99 nmol | ascorbic acid content in human skin fibroblasts per one million cells, Ave [5]: 49.89 nmol | ascorbic acid content in human skin fibroblasts per one million cells, Sample A [5]: 49.23 nmol | ascorbic acid content in human skin fibroblasts per one million cells, Sample B [5]: 50.54 nmol | ascorbic acid content in human skin fibroblasts per one million cells, Ave [6]: 12.17 nmol | ascorbic acid content in human skin fibroblasts per one million cells, Sample A [6]: 11.88 nmol | ascorbic acid content in human skin fibroblasts per one million cells, Sample B [6]: 12.46 nmol | ascorbic acid content in human skin fibroblasts per one million cells, Ave [7]: 50.77 nmol | ascorbic acid content in human skin fibroblasts per one million cells, Sample A [7]: 50.20 nmol | ascorbic acid content in human skin fibroblasts per one million cells, Sample B [7]: 51.35 nmol | ascorbic acid content in human skin fibroblasts per one million cells, Ave [8]: 13.37 nmol | ascorbic acid content in human skin fibroblasts per one million cells, Sample A [8]: 13.37 nmol | ascorbic acid content in human skin fibroblasts per one million cells, Sample B [8]: 13.37 nmol

C[N+](C)(C)[C@@H](Cc1c[nH]c(=S)[nH]1)C(=O)[O-] [ergothioneine]
increase of ascorbic acid levels following oxidative stress (1:100 ergothioneine (EGT) to magnesium ascorbyl phosphate (MAP), following oxidative stress): up to 300% | ascorbic acid absorbed by the fibroblast cells with versus without ergothioneine (FIG. 1, no oxidative stress): equally absorbed | amount of ascorbic acid in fibroblast cells following oxidative stress in the presence of ergothioneine (FIG. 3, following oxidative stress): synergistically increased | boost of vitamin C levels in a cell (synergistic amount of ergothioneine, summary of the examples): three-fold or more
